Data as given in the NIST ThermoML archive (doi:10.1016/j.jct.2015.12.017).

Assays:
[1] = Molar enthalpy of transition or fusion
[2] = for molar entropy: 101.33 kPa

O=P([O-])([O-])[O-].[Co+2].[Cs+] [cesium cobalt(II) phosphate]
Conditions | Molar enthalpy of transition or fusion, Crystal 2, DSC [kcal/mol] | Molar enthalpy of transition or fusion, Crystal 3, DSC [kcal/mol] | Molar enthalpy of transition or fusion, Crystal 4, Adiabatic calorimetry [kcal/mol] | Triple point temperature, Crystal 2, DSC [K] | Triple point temperature, Crystal 3, DSC [K] | Triple point temperature, Crystal 4, Adiabatic calorimetry [K]
[1] | 0.113 | 0.0824 | 0.00728 | – | – | –
[2] | – | – | – | 514.4 | 486.9 | 313.4

[2]
Conditions | molar entropy [J/K/mol]
5 K, Crystal 4, Vacuum adiabatic calorimetry | 0.4864
6 K, Crystal 4, Vacuum adiabatic calorimetry | 0.7965
7 K, Crystal 4, Vacuum adiabatic calorimetry | 1.172
8 K, Crystal 4, Vacuum adiabatic calorimetry | 1.621
9 K, Crystal 4, Vacuum adiabatic calorimetry | 2.062
10 K, Crystal 4, Vacuum adiabatic calorimetry | 2.528
15 K, Crystal 4, Vacuum adiabatic calorimetry | 5.047
20 K, Crystal 4, Vacuum adiabatic calorimetry | 8.117
25 K, Crystal 4, Vacuum adiabatic calorimetry | 11.62
30 K, Crystal 4, Vacuum adiabatic calorimetry | 15.46
35 K, Crystal 4, Vacuum adiabatic calorimetry | 19.44
40 K, Crystal 4, Vacuum adiabatic calorimetry | 23.53
45 K, Crystal 4, Vacuum adiabatic calorimetry | 27.67
50 K, Crystal 4, Vacuum adiabatic calorimetry | 31.83
60 K, Crystal 4, Vacuum adiabatic calorimetry | 40.01
70 K, Crystal 4, Vacuum adiabatic calorimetry | 47.95
80 K, Crystal 4, Vacuum adiabatic calorimetry | 55.65
90 K, Crystal 4, Vacuum adiabatic calorimetry | 63.08
100 K, Crystal 4, Vacuum adiabatic calorimetry | 70.28
110 K, Crystal 4, Vacuum adiabatic calorimetry | 77.27
120 K, Crystal 4, Vacuum adiabatic calorimetry | 84.06
130 K, Crystal 4, Vacuum adiabatic calorimetry | 90.54
140 K, Crystal 4, Vacuum adiabatic calorimetry | 96.95
150 K, Crystal 4, Vacuum adiabatic calorimetry | 103.18
160 K, Crystal 4, Vacuum adiabatic calorimetry | 109.17
170 K, Crystal 4, Vacuum adiabatic calorimetry | 115.16
180 K, Crystal 4, Vacuum adiabatic calorimetry | 120.89
190 K, Crystal 4, Vacuum adiabatic calorimetry | 126.55
200 K, Crystal 4, Vacuum adiabatic calorimetry | 132.03
210 K, Crystal 4, Vacuum adiabatic calorimetry | 137.36
220 K, Crystal 4, Vacuum adiabatic calorimetry | 142.59
230 K, Crystal 4, Vacuum adiabatic calorimetry | 147.75
240 K, Crystal 4, Vacuum adiabatic calorimetry | 152.74
250 K, Crystal 4, Vacuum adiabatic calorimetry | 157.64
260 K, Crystal 4, Vacuum adiabatic calorimetry | 162.55
270 K, Crystal 4, Vacuum adiabatic calorimetry | 167.29
273.15 K, Crystal 4, Vacuum adiabatic calorimetry | 168.78
280 K, Crystal 4, Vacuum adiabatic calorimetry | 171.94
290 K, Crystal 4, Vacuum adiabatic calorimetry | 176.52
298.15 K, Crystal 4, Vacuum adiabatic calorimetry | 180.17
300 K, Crystal 4, Vacuum adiabatic calorimetry | 181.01
310 K, Crystal 4, Vacuum adiabatic calorimetry | 185.5
313.4 K, Crystal 3, Vacuum adiabatic calorimetry | 186.91
313.4 K, Crystal 4, Vacuum adiabatic calorimetry | 186.83
320 K, Crystal 3, Vacuum adiabatic calorimetry | 190.07
330 K, Crystal 3, Vacuum adiabatic calorimetry | 194.48
340 K, Crystal 3, Vacuum adiabatic calorimetry | 198.8
350 K, Crystal 3, Small sample (50 mg) DSC | 203.12
360 K, Crystal 3, Small sample (50 mg) DSC | 207.45
370 K, Crystal 3, Small sample (50 mg) DSC | 211.69
380 K, Crystal 3, Small sample (50 mg) DSC | 215.76
390 K, Crystal 3, Small sample (50 mg) DSC | 219.92
400 K, Crystal 3, Small sample (50 mg) DSC | 223.91
410 K, Crystal 3, Small sample (50 mg) DSC | 227.9
420 K, Crystal 3, Small sample (50 mg) DSC | 231.81
430 K, Crystal 3, Small sample (50 mg) DSC | 235.63
440 K, Crystal 3, Small sample (50 mg) DSC | 239.46
450 K, Crystal 3, Small sample (50 mg) DSC | 243.2
460 K, Crystal 3, Small sample (50 mg) DSC | 246.94
470 K, Crystal 3, Small sample (50 mg) DSC | 250.6
480 K, Crystal 3, Small sample (50 mg) DSC | 254.26
486.9 K, Crystal 2, Small sample (50 mg) DSC | 257.5
486.9 K, Crystal 3, Small sample (50 mg) DSC | 256.83
490 K, Crystal 2, Small sample (50 mg) DSC | 258.58
500 K, Crystal 2, Small sample (50 mg) DSC | 262.16
510 K, Crystal 2, Small sample (50 mg) DSC | 265.65
514.4 K, Crystal 1, Small sample (50 mg) DSC | 267.98
514.4 K, Crystal 2, Small sample (50 mg) DSC | 267.06
520 K, Crystal 1, Small sample (50 mg) DSC | 270.05
530 K, Crystal 1, Small sample (50 mg) DSC | 273.38
540 K, Crystal 1, Small sample (50 mg) DSC | 276.71
550 K, Crystal 1, Small sample (50 mg) DSC | 279.95
560 K, Crystal 1, Small sample (50 mg) DSC | 283.19
570 K, Crystal 1, Small sample (50 mg) DSC | 286.27
580 K, Crystal 1, Small sample (50 mg) DSC | 289.34
590 K, Crystal 1, Small sample (50 mg) DSC | 292.42
600 K, Crystal 1, Small sample (50 mg) DSC | 295.41
610 K, Crystal 1, Small sample (50 mg) DSC | 298.32
620 K, Crystal 1, Small sample (50 mg) DSC | 301.15
630 K, Crystal 1, Small sample (50 mg) DSC | 303.98
640 K, Crystal 1, Small sample (50 mg) DSC | 306.8
650 K, Crystal 1, Small sample (50 mg) DSC | 309.55
